{
  "source": "patent US9192656B2",
  "about": "“Methods and compositions for the treatment of cancer” (QUINTESSENCE BIOSCIENCES, INC., priority 2006, dated 2015)",
  "key": {"[1]": {"system": "human pancreatic cancer cell line (B×PC-3)", "test": "In vivo inhibition of tumor growth, BxPC-3 xenograft", "parameters": "species or system human tumor cells in nude mice", "conditions": "Example 5, Table 9, RNase 1 15 mg/kg qd×5, gemcite 60 mg/kg twice a week", "description": "(§1) Cells from a non-small cell lung cancer cell line (A549) were grown in nine T175 flasks in F12K media and 10% fetal calf serum until the cells were confluent. 4.5×10^6 cells (in 100 microliters) were injected into the right rear flank of 4-5 week old male homozygous (nu/nu) nude mice (Harlan, Madison Wis.). Tumors were allowed to grow to an average size of ≧75 mm^3 before treatments were initiated. Animals of each tumor type, with the properly sized tumors, were divided into treatment groups, including one set of animals treated weekly with vehicle (phosphate buffered saline, PBS). The vehicle and the test agents were all administered by intraperitoneal injection. Each animal was weighed twice a week during treatment. The tumors were measured twice weekly using calipers. Tumor volume (mm^3) was determined by using the formula for an ellipsoid sphere: […]\n(§2) The percent tumor growth inhibition (% TGI) is calculated by: […]\n(§3) The xenograft model of this example was set up as in the previous example except that a human pancreatic cancer cell line (B×PC-3) was used. The efficacy of wild type human RNase 1 is shown relative to gemcite. The RNase 1 was administered at 15 mg per kg of body weight of the animal five times per week (15 mg/kg qd×5), while the gemcite was used at 60 mg/kg twice a week. The value of n represents the number of animals in the specific treatment arm of the experiment.\nas §3, with “shown.” for “shown relative to gemcite.”, “three different doses: (1) 30” for “15”, “once” for “five times”, “(30” for “(15”, “1×wk), (2) 75” for “qd×5), while the gemcite was used at 60”, “1×wk, or (3) 150 mg/kg 1×wk.” for “twice a week.”"}, "[2]": {"system": "non-small cell lung cancer cell line (A549)", "test": "In vivo inhibition of tumor growth, A549 xenograft", "parameters": "species or system human tumor cells in nude mice", "conditions": "for Starting volume: at start", "description": "Cells from a non-small cell lung cancer cell line (A549) were grown in nine T175 flasks in F12K media and 10% fetal calf serum until the cells were confluent. 4.5×10^6 cells (in 100 microliters) were injected into the right rear flank of 4-5 week old male homozygous (nu/nu) nude mice (Harlan, Madison Wis.). Tumors were allowed to grow to an average size of ≧75 mm^3 before treatments were initiated. Animals of each tumor type, with the properly sized tumors, were divided into treatment groups, including one set of animals treated weekly with vehicle (phosphate buffered saline, PBS). The vehicle and the test agents were all administered by intraperitoneal injection. Each animal was weighed twice a week during treatment. The tumors were measured twice weekly using calipers. Tumor volume (mm^3) was determined by using the formula for an ellipsoid sphere:\n[formula] The efficacy of wild type human RNase 1 is shown relative to cisplatin. The RNase 1 was administered at 75 mg per kg of body weight of the animal once a week (75 mg/kg 1×wk), while the cisplatin was used at 6 mg/kg once a week. The value of n represents the number of animals in the specific treatment arm of the experiment.\nas §2\nThe xenograft model of this example was set up with the human non-small cell lung cancer cell line (A549) as in the previous examples. The efficacy of wild type human RNase 1 is shown relative to tarceva. The RNase 1 was administered at 75 mg per kg of body weight of the animal (75 mg/kg 1×wk) or 150 mg/kg 1×wk. Tarceva was given orally with doses of 50 mg/kg twice a week. The value of n represents the number of animals in the specific treatment arm of the experiment."}, "[3]": {"system": "non-small cell lung cancer", "test": "Xenograft models of non-small cell lung cancer (RNase 1 variants)", "type": "in vivo, mice", "conditions": "for (Final − start)/Control: relative to vehicle; for Starting volume: tumor volume at start; for tumor growth inhibition (in words): xenograft model of non-small cell lung cancer", "description": "as §1, §2"}, "[4]": {"system": "human breast cancer cell line (MDA-MB-231)", "test": "In vivo inhibition of tumor growth, MDA-MB-231 xenograft", "parameters": "species or system human tumor cells in nude mice", "conditions": "Example 10, Table 14, female mice, RNase 1 75 mg/kg 1×wk, doxorubicin 3 mg/kg once per week", "description": "as §1, §2\nThe xenograft model of this example was set up as in the previous example except that a human breast cancer cell line (MDA-MB-231) and female mice were used. The efficacy of wild type human RNase 1 is shown relative to doxorubicin. The RNase 1 was administered at 75 mg per kg of body weight of the animal once per week (75 mg/kg 1×wk), while the doxorubicin was given at 3 mg/kg once per week. The value of n represents the number of animals in the specific treatment arm of the experiment."}, "[5]": {"conditions": "Example 6, Table 10, orally 50 mg/kg twice a week"}, "[6]": {"conditions": "Example 3, Table 7, i.p., RNase 1 75 mg/kg 1×wk, cisplatin 6 mg/kg once a week"}},
  "data": [
    {"molecule": "Nc1ccn([C@@H]2O[C@H](CO)[C@@H](O)C2(F)F)c(=O)n1", "note": "[Gemcite, reference compound]", "values": [
      {"measurement": "% TGI", "setting": "[1]", "value": 60, "unit": "%"},
      {"measurement": "(Final − start)", "setting": "[1]", "value": 427, "unit": "mm^3"},
      {"measurement": "(Final − start)/Control", "setting": "[1]", "value": 0.40},
      {"measurement": "Final volume", "setting": "[1]", "value": 505, "unit": "mm^3"},
      {"measurement": "Starting volume", "setting": "[1]; at start", "value": 78, "unit": "mm^3"}
    ]},
    {"molecule": "C#Cc1cccc(Nc2ncnc3cc(OCCOC)c(OCCOC)cc23)c1", "note": "[Tarceva, N-(3-ethynylphenyl)-6,7-bis(2-methoxyethoxy)quinazolin-4-amine, reference compound]", "values": [
      {"measurement": "% TGI", "setting": "[2]; [5]", "value": 77, "unit": "%"},
      {"measurement": "(Final − start)", "setting": "[2]; [5]", "value": 181, "unit": "mm^3"},
      {"measurement": "(Final − start)/Control", "setting": "[2]; [5]", "value": 0.23},
      {"measurement": "Final volume", "setting": "[2]; [5]", "value": 265, "unit": "mm^3"},
      {"measurement": "Starting volume", "setting": "[2]; [5]", "value": 84, "unit": "mm^3"}
    ]},
    {"molecule": "N.N.[Cl][Pt][Cl]", "note": "[cisplatin, Cisplatin, reference compound]", "values": [
      {"measurement": "% TGI", "setting": "[2]; [6]", "value": 81, "unit": "%"},
      {"measurement": "(Final − start)", "setting": "[2]; [6]", "value": 58, "unit": "mm^3"},
      {"measurement": "(Final − start)/Control", "setting": "[2]; [6]", "value": 0.19},
      {"measurement": "Final volume", "setting": "[2]; [6]", "value": 130, "unit": "mm^3"},
      {"measurement": "Starting volume", "setting": "[2]; [6]", "value": 72, "unit": "mm^3"},
      {"measurement": "% TGI", "setting": "[3]; Table 2, FIG. 1", "value": 68, "unit": "%"},
      {"measurement": "(Final − start)", "setting": "[3]; Table 2, FIG. 1", "value": 290, "unit": "mm^3"},
      {"measurement": "Final volume", "setting": "[3]; Table 2, FIG. 1", "value": 369, "unit": "mm^3"},
      {"measurement": "(Final − start)/Control", "setting": "[3]; Table 2, FIG. 1", "value": 0.32},
      {"measurement": "Starting volume", "setting": "[3]; Table 2, FIG. 1", "value": 79, "unit": "mm^3"}
    ]},
    {"molecule": "COc1cccc2c1C(=O)c1c(O)c3c(c(O)c1C2=O)C[C@@](O)(C(=O)CO)C[C@@H]3O[C@H]1C[C@H](N)[C@H](O)[C@H](C)O1", "note": "[doxorubicin, reference compound]", "values": [
      {"measurement": "% TGI", "setting": "[4]", "value": 84, "unit": "%"},
      {"measurement": "(Final − start)", "setting": "[4]", "value": 22, "unit": "mm^3"},
      {"measurement": "(Final − start)/Control", "setting": "[4]", "value": 0.16},
      {"measurement": "Final volume", "setting": "[4]", "value": 86, "unit": "mm^3"},
      {"measurement": "Starting volume", "setting": "[4]; at start", "value": 64, "unit": "mm^3"}
    ]},
    {"molecule": "G38R/R39D/L86E/N88R/G89D/R91D RNase 1: variant of human RNase 1 with substitutions G38R, R39D, L86E, N88R, G89D, R91D (protein) KESRAKKFQRQHMDSDSSPSSSSTYCNQMMRRRNMTQRDCKPVNTFVHEPLVDVQNVCFQEKVTCKNGQGNCYKSNSSMHITDCRETRDSDYPNCAYRTSPKERHIIVACEGSPYVPVHFDASVEDST", "values": [
      {"measurement": "% TGI", "setting": "[3]; Table 2, FIG. 1", "value": 28, "unit": "%"},
      {"measurement": "(Final − start)", "setting": "[3]; Table 2, FIG. 1", "value": 647, "unit": "mm^3"},
      {"measurement": "Final volume", "setting": "[3]; Table 2, FIG. 1", "value": 723, "unit": "mm^3"},
      {"measurement": "(Final − start)/Control", "setting": "[3]; Table 2, FIG. 1", "value": 0.72},
      {"measurement": "Starting volume", "setting": "[3]; Table 2, FIG. 1", "value": 76, "unit": "mm^3"},
      {"measurement": "tumor growth inhibition (in words)", "setting": "[3]", "value": "displayed tumor growth inhibition"}
    ]},
    {"molecule": "L86E/N88R/G89D/R91D RNase 1: variant of human RNase 1 with substitutions L86E, N88R, G89D, R91D (protein) KESRAKKFQRQHMDSDSSPSSSSTYCNQMMRRRNMTQGRCKPVNTFVHEPLVDVQNVCFQEKVTCKNGQGNCYKSNSSMHITDCRETRDSDYPNCAYRTSPKERHIIVACEGSPYVPVHFDASVEDST", "values": [
      {"measurement": "% TGI", "setting": "[3]; Table 2, FIG. 1", "value": 40, "unit": "%"},
      {"measurement": "(Final − start)", "setting": "[3]; Table 2, FIG. 1", "value": 540, "unit": "mm^3"},
      {"measurement": "Final volume", "setting": "[3]; Table 2, FIG. 1", "value": 624, "unit": "mm^3"},
      {"measurement": "(Final − start)/Control", "setting": "[3]; Table 2, FIG. 1", "value": 0.60},
      {"measurement": "Starting volume", "setting": "[3]; Table 2, FIG. 1", "value": 84, "unit": "mm^3"},
      {"measurement": "tumor growth inhibition (in words)", "setting": "[3]", "value": "displayed tumor growth inhibition"}
    ]},
    {"molecule": "R4C/G38R/R39D/L86E/N88R/G89D/R91D/V118C RNase 1: variant of human RNase 1 with substitutions R4C, G38R, R39D, L86E, N88R, G89D, R91D, V118C (protein) KESCAKKFQRQHMDSDSSPSSSSTYCNQMMRRRNMTQRDCKPVNTFVHEPLVDVQNVCFQEKVTCKNGQGNCYKSNSSMHITDCRETRDSDYPNCAYRTSPKERHIIVACEGSPYVPCHFDASVEDST", "values": [
      {"measurement": "% TGI", "setting": "[3]; Table 3, FIG. 2", "value": 48, "unit": "%"},
      {"measurement": "(Final − start)", "setting": "[3]; Table 3, FIG. 2", "value": 1022, "unit": "mm^3"},
      {"measurement": "Final volume", "setting": "[3]; Table 3, FIG. 2", "value": 1130, "unit": "mm^3"},
      {"measurement": "(Final − start)/Control", "setting": "[3]; Table 3, FIG. 2", "value": 0.52},
      {"measurement": "Starting volume", "setting": "[3]; Table 3, FIG. 2", "value": 108, "unit": "mm^3"},
      {"measurement": "tumor growth inhibition (in words)", "setting": "[3]", "value": "impacted tumor growth"}
    ]},
    {"molecule": "R4C/K7A/G38R/R39D/L86E/N88R/G89D/R91D/V118C RNase 1: variant of human RNase 1 with substitutions R4C, K7A, G38R, R39D, L86E, N88R, G89D, R91D, V118C (protein) KESCAKAFQRQHMDSDSSPSSSSTYCNQMMRRRNMTQRDCKPVNTFVHEPLVDVQNVCFQEKVTCKNGQGNCYKSNSSMHITDCRETRDSDYPNCAYRTSPKERHIIVACEGSPYVPCHFDASVEDST", "values": [
      {"measurement": "% TGI", "setting": "[3]; Table 4, FIG. 3", "value": 36, "unit": "%"},
      {"measurement": "(Final − start)", "setting": "[3]; Table 4, FIG. 3", "value": 478, "unit": "mm^3"},
      {"measurement": "Final volume", "setting": "[3]; Table 4, FIG. 3", "value": 552, "unit": "mm^3"},
      {"measurement": "(Final − start)/Control", "setting": "[3]; Table 4, FIG. 3", "value": 0.36},
      {"measurement": "Starting volume", "setting": "[3]; Table 4, FIG. 3", "value": 74, "unit": "mm^3"},
      {"measurement": "tumor growth inhibition (in words)", "setting": "[3]", "value": "demonstrated measurable tumor growth inhibition"}
    ]}
  ]
}
